Experiments:
Factor II a = assay: anti-Factor IIa activity, chromogenic substrate method; type: biochemical; conditions: data not shown
Factor Xa [1] = assay: anti-Factor Xa activity, chromogenic substrate assay; type: biochemical
[2] = in vivo pharmacokinetics after subcutaneous injection in rats; conditions: rat
Experimental: Both Fondaparinux and the phenyl-linked heparin hexasaccharide dimer I-1-1 were injected subcutaneously into Wister male rats weighing 200±20 g (n≥3) at a dose of 300 IU/kg. Blood samples were collected from the jugular vein of rats at 0, 0.5, 0.75, 1, 1.25, 1.5, 1.75, 2, 2.5, 3, 4, 8, 12 and 24 hours respectively (based on the actual blood collection time). After the blood samples were centrifuged at 5000 r/min for 15 minutes, the supernatant was taken to determine the anti-Factor Xa activity by the above method, and the residual concentrations of Fondaparinux and the phenyl-linked heparin hexasaccharide dimer I-1-1 in rats were calculated. The drug concentration vs. time curve was drawn.

Factor Xa [3] = assay: neutralization of anti-Factor Xa activity by protamine sulfate, chromogenic substrate method; type: biochemical; conditions: different concentrations of protamine sulfate
From the text: Therefore, the phenyl-linked heparin hexasaccharide dimer I-1-1 prepared by the present disclosure is a novel heparin analog whose anticoagulant activity may be neutralized by protamine sulfate.

Factor Xa [4] = assay: anti-Factor Xa titer against low molecular weight heparin standard curve, chromogenic substrate method; type: biochemical

Structure (SMILES) | anti-Factor IIa activity (Factor II a) | IC50 value of the anti-Factor Xa activity (Factor Xa [1]; mass concentration) [µg/mL] | IC50 (Factor Xa [1]; molar concentration) [nM] | t1/2 ([2]; male, Wister, in vivo, sc) [h] | in vivo half-life (comparison in words) ([2]; in vivo) | neutralization of in vitro anti-Factor Xa activity by protamine sulfate (Factor Xa [3]) | titer (Factor Xa [4]) | half-life ([2]; male, Wister, plasma, sc, 300 IU/kg) [h]
O=C(O)C1OC(OC2C(COS(=O)(=O)O)OC(OC3C(C(=O)O)OC(OC4C(COS(=O)(=O)O)OC(OC5C(C(=O)O)OC(Oc6ccc(OC7OC(C(=O)O)C(OC8OC(COS(=O)(=O)O)C(OC9OC(C(=O)O)C(OC%10OC(COS(=O)(=O)O)C(OC%11OC(C(=O)O)C(OC%12OC(COS(=O)(=O)O)C(O)C(O)C%12NS(=O)(=O)O)C(O)C%11O)C(OS(=O)(=O)O)C%10NS(=O)(=O)O)C(O)C9OS(=O)(=O)O)C(O)C8NS(=O)(=O)O)C(O)C7O)cc6)C(O)C5O)C(NS(=O)(=O)O)C4O)C(OS(=O)(=O)O)C3O)C(NS(=O)(=O)O)C2OS(=O)(=O)O)C(O)C(O)C1OC1OC(COS(=O)(=O)O)C(O)C(O)C1NS(=O)(=O)O (centres unmarked) [Compound I-1-1] | no significant anti-Factor Ha activity | 0.02815 | 7.2 | 2.269 | comparable to that of commercially available Fondaparinux | almost completely reversed | 1,121.5 IU/mg | 
CO[C@H]1O[C@H](COS(=O)(=O)O)[C@@H](O[C@@H]2O[C@@H](C(=O)O)[C@@H](O[C@H]3O[C@H](COS(=O)(=O)O)[C@@H](O[C@@H]4O[C@H](C(=O)O)[C@@H](O[C@H]5O[C@H](COS(=O)(=O)O)[C@@H](O)[C@H](O)[C@H]5NS(=O)(=O)O)[C@H](O)[C@H]4O)[C@H](OS(=O)(=O)O)[C@H]3NS(=O)(=O)O)[C@H](O)[C@H]2OS(=O)(=O)O)[C@H](O)[C@H]1NS(=O)(=O)O [Fondaparinux, reference compound] |  |  |  |  |  |  |  | 2.17

Source: patent US20260176269A1, “ANTICOAGULANT HEPARIN OLIGOSACCHARIDE PHENYL-LINKED DIMER, PREPARATION METHOD THEREFOR AND USE THEREOF” (SHANDONG UNIVERSTIY, priority 2022, published 2026)
